The source of these data is PMC5365645, “Preclinical Pharmacokinetics and Pharmacodynamic Target of SCY-078, a First-in-Class Orally Active Antifungal Glucan Synthesis Inhibitor, in Murine Models of Disseminated Candidiasis” (Antimicrobial Agents and Chemotherapy, 2017).

For data set [1] the following is noted: cited from earlier work.
The conditions of data set [2]: Rabbit, cited from earlier work.
The conditions of data set [3]: Human, cited from earlier work.
Details of data set [4]: method as in ref 26 = [26]; 26. Yamato Y , Kaneko H , Hashimoto T , Katashima M , Ishibashi K , Kawamura A , Terakawa M , Kagayama A 2002 Pharmacokinetics of the anti-fungal drug micafungin in mice, rats and dogs, and its in vit. The settings on record: Dog, i.v. ref 26; cited from earlier work.
For data set [5] the following is noted: Rat, i.v. ref 26; cited from earlier work.
The conditions of data set [6]: Mouse, cited from earlier work.
Another data set deals with C. albicans MY1055. The experiment in a line: Immediate treatment murine model of disseminated candidiasis.
Data set [7] can be described thus: Volume of distribution after i.v. administration (literature). The conditions noted are these: in vivo, iv, Rat, calculated using previously published data ref 17, read-out: Vd ss. An excerpt: TABLE 7 Volume of distribution for SCY-078 and echinocandins after i.v. administration | column: Vd ss (liters/kg)^a / Anidulafungin

The structures appear in SMILES notation. Where two headings read alike, the source gives them in different places. *1 amine or outer side, *2 acyl side, *3 side chain or, on linkers, in order; H or OH if unused. Where a SMILES comes first, the peptide text is derived from it. Bridges are numbered along the chain shown (N, C = ends). [ ]: non-standard residue; d: D form. The star is where a group is joined. hTyr(3S-OH,4S-OH,3'-OSO3H) = N[C@H](C(=O)O)[C@H](O)[C@@H](O)c1ccc(O)c(OS(=O)(=O)O)c1; pTerphenylCO(4''-OnC5H11) = CCCCCOc1ccc(-c2ccc(-c3ccc(C(=O)*)cc3)cc2)cc1; Orn(4R-OH,5R-OH) = O=C([C@H](C[C@@H](O)[C@@H](O)N[*:3])N[*:1])[*:2]; hTyr(3S-OH,4S-OH) = N[C@H](C(=O)O)[C@H](O)[C@@H](O)c1ccc(O)cc1; Pro(3S-OH,4S-Me) = C[C@H]1CN[C@H](C(=O)O)[C@H]1O; X1 = CCCCCOc1ccc(-c2cc(-c3ccc(C(=O)*)cc3)no2)cc1; Gln(3R-OH) = NC(=O)C[C@@H](O)[C@H](N)C(=O)O; Hyp = O=C(O)[C@@H]1C[C@@H](O)CN1 Some results are limits rather than exact numbers.

In the case of `CCCCCOc1ccc(-c2cc(-c3ccc(C(=O)N[C@H]4C[C@@H](O)[C@@H](O)NC(=O)[C@@H]5[C@@H](O)[C@@H](C)CN5C(=O)[C@H]([C@H](O)CC(N)=O)NC(=O)[C@H]([C@H](O)[C@@H](O)c5ccc(O)c(OS(=O)(=O)O)c5)NC(=O)[C@@H]5C[C@@H](O)CN5C(=O)[C@H]([C@@H](C)O)NC4=O)cc3)no2)cc1` [Micafungin, micafungin] (X1-[Orn(4R-OH,5R-OH)]T[Hyp][hTyr(3S-OH,4S-OH,3'-OSO3H)][Gln(3R-OH)][Pro(3S-OH,4S-Me)]; lactam 1-C), the Kidney/plasma ratio in data set [1] (after i.v. delivery to rodents ref 24) was 3.4. Also, the Vd ss in data set [2] (i.v. ref 30) was 0.313 ([30]) liters/kg; in data set [3] (i.v. ref 31) it was 0.21 to 0.24 L/kg; in data set [3] (i.v. ref 32), 0.26 L/kg; in data set [4], 0.23–0.25 ([26]) liters/kg; in data set [5], 0.42–0.56 ([26]) liters/kg; in data set [6] (i.v. ref 26), 0.38–0.49 ([26]) liters/kg.

`OC(Cn1cncn1)(Cn1cncn1)c1ccc(F)cc1F` [FLU, fluconazole, reference compound]: the “Clearance of fungal infection” value in the data set on C. albicans MY1055 (up to 5 mg/kg p.o. BID) was “did not result in clearance of fungal infection in any of the animals tested”.

In the case of `CC[C@H](C)C[C@H](C)CCCCCCCCC(=O)N[C@H]1C[C@@H](O)[C@@H](NCCN)NC(=O)[C@@H]2[C@@H](O)CCN2C(=O)[C@H]([C@H](O)CCN)NC(=O)[C@H]([C@H](O)[C@@H](O)c2ccc(O)cc2)NC(=O)[C@@H]2C[C@@H](O)CN2C(=O)[C@H]([C@@H](C)O)NC1=O` [Caspofungin, caspofungin], the Kidney/plasma ratio entry in data set [1] (after i.v. delivery to rodents ref 22) was “approximately 2.9”; in data set [1] (after i.v. delivery to rodents, based on the total radioactivity over 24 h ref 23) it was 2.8. Also, the Vd ss in data set [2] (i.v. ref 25) is 0.28 L/kg; in data set [2] (i.v. ref 29) it was 0.26 L/kg; in data set [3] (i.v. ref 31) it was 0.14 ([31]) liters/kg; in data set [6] (i.v. ref 22), 0.25 L/kg; in data set [6] (i.v. ref 25) it was 0.45 L/kg. Further, the “Dose effective in clearing kidney fungal burden” value with C. albicans MY1055 (administered intraperitoneally twice daily (data not shown)) was ≥ 0.125 mg/kg.

`CCCCCOc1ccc(-c2ccc(-c3ccc(C(=O)N[C@H]4C[C@@H](O)[C@@H](O)NC(=O)[C@@H]5[C@@H](O)[C@@H](C)CN5C(=O)[C@H]([C@@H](C)O)NC(=O)[C@H]([C@H](O)[C@@H](O)c5ccc(O)cc5)NC(=O)[C@@H]5C[C@@H](O)CN5C(=O)[C@H]([C@@H](C)O)NC4=O)cc3)cc2)cc1` [Anidulafungin, anidulafungin] ({pTerphenylCO(4''-OnC5H11)}-[Orn(4R-OH,5R-OH)]T[Hyp][hTyr(3S-OH,4S-OH)]T[Pro(3S-OH,4S-Me)]; lactam 1-C): the Kidney/plasma ratio in data set [1] (after i.v. delivery to rodents ref 17) is listed as 10.7. The distribution volume (Vd) (as a rule, the apparent volume that relates the amount in the body to the concentration in plasma or blood) in data set [7] was 2.16 L/kg. Besides, the results for the Vd ss in data set [2] (i.v. ref 28) and in data set [3] (i.v. ref 31) were 0.93–1.23 ([28]) liters/kg and 0.5 L/kg, respectively.
